Consider 1 compound from patent US20240108702A1, “Use Of Naturally Occurring Cyclic Peptides For Treatment Of SARS-COV-2 Infection” (The University of Southern California, priority 2021, published 2024).

The AUC is concentration integrated over time. By AUC(0-inf) is commonly meant total exposure, with the tail of the curve extrapolated. Read a high AUC(0-inf) as more exposure. As usually defined, the MRT is a mean duration of stay, worked out from the concentration-time curve. What is called clearance is the volume of plasma or blood freed of the substance per unit of time. Low values mean a low capacity for elimination, high ones a high capacity for elimination. A word on the Cmax: it is the peak of the concentration-time curve. One may read the NOAEL as the highest dose or exposure tested at which no adverse effect was seen.

Data set [1] is described as follows: Single-dose i.v. bolus PK study in mice. The data set is classed as in vivo, CD-1 mice. As for the experimental part: Mouse studies: All procedures and protocols involving the use of animals were reviewed and approved by the University of Southern California (USC) IACUC (protocol #20538). Briefly, male (31.7-37.7 g) and female (25.2-35.6 g) CD-1 mice (Charles River Laboratories) were administered a single 5 mg/kg i.v. bolus injection of Peptide 1 (SEQ ID NO. 1) into the lateral tail vein. A total of 24 mice were separated into six groups (n=2/sex/group), with each group assigned to a single, pre-determined time point. Blood samples were collected at 0.25, 1, 2, 4, 8, and 24 h post-dose via terminal cardiac puncture. The collected samples were centrifuged to separate the plasma and stored at −80° C. until analysis.
Bioanalytical analysis: Clarified plasma samples from mice were directly diluted into 5% formic acid/5% acetonitrile. Quantitative analysis of Peptide 1 (SEQ ID NO. 1) was performed by LC-MS/MS with reverse-phase liquid chromatography (XBridge™ BEH phenyl 3.5 μm 3×100 mm column, Waters #186003328) on an Acquity™ H-Class UPLC (Waters) coupled to a Xevo™ TQ-S tandem electrospray mass spectrometry running MassLynx™ V4.1 (Waters). Quantitative mass spectroscopy was performed by multiple-reaction monitoring transition 417.32>517.21, with the area under the curve determined by TargetLynx™ (Waters). A synthetic theta defensin-like peptide was used as an internal standard (IS). The lower limit of quantification (LLOQ) of the assay was 1 ng/mL. Intra- and inter-assay precision (percent coefficient of variation [CV]) was ≤3%, and intra and interassay accuracy (% relative error) was ≤5%. Plasma Peptide 1 (SEQ ID NO. 1) concentration analyses for rats and cynomolgus monkey studies were performed at MicroConstants (San Diego, CA) by HPLC using a Mac-Mod™ Analytical ACE C4 column. The mobile phase was nebulized using heated nitrogen in Z-Spray source/interface set to electrospray positive ionization mode, and the compound was detected using MS/MS (LLOQ=10.0 ng/mL). Details of the method are summarized in the MicroConstants method No. MN20038. Clarified plasma samples from a serially sampled vervet were quantified by ultra-performance liquid chromatography Waters Acquity H-Class UPLC. […] Peptide 1 (SEQ ID NO. 1) peak and mass confirmation was performed on post PDA eluent using a Micromass Quattro Ultima™ mass spectrometer with MassLynx™ 4.1 (Waters). The lower limit of quantitation (LLOQ) ranged from 10-30 ng/mL (determined by sample background) to an upper limit of 50 ug/mL. RTD-2 (10 ug/mL) was used as an internal standard. Intra- and interassay precision (% coefficient of variation [CV]) was ≤3%, and intra and interassay accuracy (% relative error) was ≤5%.
Pharmacokinetic analysis: Non-compartmental analysis (NCA) was performed using Phoenix WinNonlin™ (version 8.3.1, Certara USA, Inc.; Princeton NJ) to determine the PK parameters in mice, rats, cynomolgus monkeys, and the vervet. Nominal sampling times were used in the analysis, and data below the lower limit of quantification of the assay were excluded from the analysis. The maximum plasma concentration (Cmax) was determined from visual inspection of the data. In addition, the following parameters were calculated: terminal elimination rate constant (λz), area under the curve extrapolated to infinity (AUC0-∞), area under the curve to dosing interval (AUCτ), mean residence time (MRT), clearance (CL), and volume of distribution at steady state (Vss). AUC was calculated using the linear up, log down method, and the λz was calculated using up to the last four data points of the log-linear terminal phase of the concentration-time profile. Due to sparsely sampled data in mice and rats, the sparse sampling calculation methodology in Phoenix WinNonlin™ was used, which generated a single estimate without standard error for all parameters, except for Cmax. For rats and cynomolgus monkeys, all parameters were calculated using sampling times relative to the beginning of the i.v. infusion.

The nature of data set [2]: in vivo. The following applies: both, Sprague-Dawley, rat, iv.
For data set [3] the following is noted: rats.
A short description of data set [4]: Interspecies allometric scaling to predict human PK and human equivalent dose. As for the experimental part: Interspecies allometric scaling: Single-dose PK data from mice, rats, cynomolgus monkeys, and a vervet was used to predict human PK parameters using simple allometry. The relationship between CL or Vss obtained from the NCA, and the body weight was described using the following equation: Y=a·BW^b, where Y is the PK parameter (e.g., CL or Vss), BW is the bodyweight of the species, a is an allometric coefficient, and b is an allometric exponent. Linear regression was performed on log-transformed data. The predicted human equivalent dose was calculated based on the allometrically scaled clearance using the following equation: Dose=CL*AUC0-∞. The corresponding average AUCτ and AUC0-∞ at NOAEL and LOAEL, respectively, were used to convert the doses at NOAEL and LOAEL in preclinical animals to HED.

[5] abbreviates: both sexes, CD-1, mouse, plasma, iv, single 5 mg/kg i.v. bolus.

Like-named read-outs stand apart in the source and are kept apart here. Where a SMILES comes first, the peptide text is derived from it. Bridges are numbered along the chain shown (N, C = ends).

In the case of `CC[C@H](C)[C@@H]1NC(=O)[C@@H]2CSSC[C@H](NC(=O)[C@H](CCCNC(=N)N)NC(=O)[C@@H]3CSSC[C@H](NC1=O)C(=O)N[C@@H]([C@@H](C)O)C(=O)N[C@@H](CCCNC(=N)N)C(=O)NCC(=O)N[C@@H](Cc1ccccc1)C(=O)N3)C(=O)N[C@@H](CC(C)C)C(=O)N[C@H]1CSSC[C@H](NC(=O)[C@H](C(C)C)NC(=O)CNC(=O)[C@H](CCCNC(=N)N)NC(=O)[C@H](CCCNC(=N)N)NC1=O)C(=O)N[C@@H](CCCNC(=N)N)C(=O)N2` [Peptide 1] (cyclo(GFCRCLCRRGVCRCICTR); disulfide 3-16, 5-14, 7-12), in data set [1] (setting [5]), the AUC worked out at 12300 ng·h/mL. The AUC(0-inf) in data set [1] (setting [5]) is 12500 ng·h/mL. For the same compound, in data set [1] (setting [5]), the MRT is 2.62 h. The compound further gave a clearance in data set [1] (setting [5]) of 6.67 mL/min/kg. Besides, the Cmax in data set [1] (both sexes, CD-1, mouse, plasma, iv, single 5 mg/kg i.v. bolus, estimate (SE)) was 8920 ng/mL. Also, in data set [1] (both sexes, CD-1, mouse, plasma, iv, single 5 mg/kg i.v. bolus, read-out: Vss), the Vd came out at 1.05 L/kg. The λz came to 0.114 h⁻¹ in data set [1] (single 5 mg/kg i.v. bolus); 0.056 h⁻¹ in data set [3] (5 mg/kg i.v., Day 1); 0.104 h⁻¹ in data set [3] (5 mg/kg/day i.v., Day 7); 0.148 h⁻¹ in data set [3] (10 mg/kg i.v., Day 1); 0.133 h⁻¹ in data set [3] (10 mg/kg/day i.v., Day 7); 0.221 h⁻¹ in data set [3] (20 mg/kg i.v., Day 1). In data set [1] (single i.v. bolus), this compound had an elimination phase half-life of 6.05 h. This compound displayed an NOAEL at 7 days in data set [2] of 10 mg/kg/day. Also, the “AUCτ on Day 7 lower than AUC0-∞ on Day 1” value is 22% in data set [3] (5 mg/kg group) and 19% in data set [3] (10 mg/kg group). In addition, the “plasma levels during recovery period” value in data set [3] (Day 25, all but one rat) is recorded as “undetectable”. For the same compound, the “HED equivalent to NOAEL in cynomolgus monkeys” value in data set [4] (70 kg individual) was 15.9 mg/kg. Moreover, the “HED equivalent to NOAEL in rats” value in data set [4] (70 kg individual) is recorded as 3.1 mg/kg. Besides, the “predicted human Vss” value in data set [4] (adult 70 kg, simple allometry) is 28.0 L.
